Results from the NIST ThermoML archive (doi:10.1021/acs.jced.7b00002).

Assay: xn = mol fraction of the nth substance listed
Settings: 97.6 kPa, Liquid; for viscosity: Capillary tube (Ostwald / Ubbelohde) method; for mass density: Vibrating tube method

CCCCCCCC[n+]1ccn(C)c1.[Cl-] [1-methyl-3-octylimidazolium chloride] + CN(C)C=O
Settings | mass density [kg/m3] | viscosity [mPa·s]
303.15 K, x1 = 0.119 | 965.57 | 2.56
303.15 K, x1 = 0.241 | 979.1 | 8.9
303.15 K, x1 = 0.321 | 985.99 | 18.99
303.15 K, x1 = 0.424 | 992 | 49.08
303.15 K, x1 = 0.557 | 996.35 | 160.48
303.15 K, x1 = 0.739 | 1002.01 | 766.79
303.15 K, x1 = 0.858 | 1004.31 | 1892.8
303.15 K, x1 = 1 | 1006.2 | 7339.7
308.15 K, x1 = 0.119 | 961.27 | 2.32
308.15 K, x1 = 0.241 | 975.4 | 7.69
308.15 K, x1 = 0.321 | 982.47 | 15.91
308.15 K, x1 = 0.424 | 988.63 | 39.48
308.15 K, x1 = 0.557 | 993.19 | 122.67
308.15 K, x1 = 0.739 | 998.95 | 536.62
308.15 K, x1 = 0.858 | 1001.36 | 1258
308.15 K, x1 = 1 | 1003.33 | 4272.9
313.15 K, x1 = 0.119 | 957.31 | 2.13
313.15 K, x1 = 0.241 | 971.7 | 6.75
313.15 K, x1 = 0.321 | 979.05 | 13.51
313.15 K, x1 = 0.424 | 985.26 | 32.2
313.15 K, x1 = 0.557 | 989.93 | 95.06
313.15 K, x1 = 0.739 | 995.95 | 381.17
313.15 K, x1 = 0.858 | 998.42 | 856.69
313.15 K, x1 = 1 | 1000.48 | 2766.9
318.15 K, x1 = 0.119 | 953.45 | 1.95
318.15 K, x1 = 0.241 | 967.99 | 5.96
318.15 K, x1 = 0.321 | 975.72 | 11.56
318.15 K, x1 = 0.424 | 981.9 | 26.5
318.15 K, x1 = 0.557 | 986.82 | 74.18
318.15 K, x1 = 0.739 | 992.97 | 277.21
318.15 K, x1 = 0.858 | 995.47 | 596.05
318.15 K, x1 = 1 | 997.64 | 1788.6
323.15 K, x1 = 0.119 | 949.36 | 1.81
323.15 K, x1 = 0.241 | 964.31 | 5.29
323.15 K, x1 = 0.321 | 972.37 | 10
323.15 K, x1 = 0.424 | 978.56 | 22.11
323.15 K, x1 = 0.557 | 983.92 | 59.06
323.15 K, x1 = 0.739 | 990 | 206.44
323.15 K, x1 = 0.858 | 992.57 | 426.48
323.15 K, x1 = 1 | 994.82 | 1198.7
328.15 K, x1 = 0.119 | 945.25 | 1.67
328.15 K, x1 = 0.241 | 960.61 | 4.75
328.15 K, x1 = 0.321 | 969.03 | 8.72
328.15 K, x1 = 0.424 | 975.22 | 18.67
328.15 K, x1 = 0.557 | 980.8 | 47.65
328.15 K, x1 = 0.739 | 987.03 | 156.59
328.15 K, x1 = 0.858 | 989.7 | 312.38
328.15 K, x1 = 1 | 992 | 828.3
333.15 K, x1 = 0.119 | 941.11 | 1.56
333.15 K, x1 = 0.241 | 956.95 | 4.25
333.15 K, x1 = 0.321 | 965.62 | 7.67
333.15 K, x1 = 0.424 | 971.88 | 15.92
333.15 K, x1 = 0.557 | 977.65 | 38.97
333.15 K, x1 = 0.739 | 984.05 | 120.9
333.15 K, x1 = 0.858 | 986.83 | 233.56
333.15 K, x1 = 1 | 989.17 | 588.69
338.15 K, x1 = 0.119 | 936.97 | 1.45
338.15 K, x1 = 0.241 | 953.32 | 3.85
338.15 K, x1 = 0.321 | 962.16 | 6.79
338.15 K, x1 = 0.424 | 968.56 | 13.71
338.15 K, x1 = 0.557 | 974.48 | 32.38
338.15 K, x1 = 0.739 | 981.09 | 94.93
338.15 K, x1 = 0.858 | 983.97 | 176.82
338.15 K, x1 = 1 | 986.38 | 426.28
343.15 K, x1 = 0.119 | 932.83 | 1.36
343.15 K, x1 = 0.241 | 949.69 | 3.5
343.15 K, x1 = 0.321 | 958.67 | 6.06
343.15 K, x1 = 0.424 | 965.24 | 11.91
343.15 K, x1 = 0.557 | 971.56 | 27.13
343.15 K, x1 = 0.739 | 978.13 | 75.65
343.15 K, x1 = 0.858 | 981.1 | 137.16
343.15 K, x1 = 1 | 983.63 | 316.66
348.15 K, x1 = 0.119 | 928.69 | 1.27
348.15 K, x1 = 0.241 | 946.02 | 3.2
348.15 K, x1 = 0.321 | 955.18 | 5.43
348.15 K, x1 = 0.424 | 961.92 | 10.41
348.15 K, x1 = 0.557 | 968.34 | 22.93
348.15 K, x1 = 0.739 | 975.19 | 61.29
348.15 K, x1 = 0.858 | 978.24 | 108.17
348.15 K, x1 = 1 | 980.88 | 237.14
353.15 K, x1 = 0.119 | 924.55 | 1.2
353.15 K, x1 = 0.241 | 942.33 | 2.93
353.15 K, x1 = 0.321 | 951.69 | 4.9
353.15 K, x1 = 0.424 | 958.62 | 9.16
353.15 K, x1 = 0.557 | 965.07 | 19.6
353.15 K, x1 = 0.739 | 972.25 | 50.08
353.15 K, x1 = 0.858 | 975.39 | 86.03
353.15 K, x1 = 1 | 978.13 | 181.41
